The subject of one data set is HCT116 cells. Briefly: Inhibition of cancer cell proliferation (MTT, GIC50). In kind it is cell-based. To be noted: Homo sapiens, HCT-116, 48 hours incubation. As for the experimental part:
HCT116 cells derived from human colorectal cancer were used, and an effect of a biguanide derivative on the inhibition of cancer cell proliferation was confirmed by measuring a concentration value (cell growth inhibition concentration, GIC50) at which 50% of the cell growth was inhibited using a 3-(4,5-dimethylthiazol-2-yl)-2,5-diphenytetrazolium bromide (MTT) reagent.
First, HCT116 cells were put on a 96-well plate and cultured in a DMEM medium containing 10% bovine serum for 24 hours to each have cell count of approximately 5000. Subsequently, to obtain the GIC50 value of each compound, 100 μM (or 200 μM), 25 μM, 6.25 μM, 1.56 μM or 0.39 μM of the compound was treated to each culture medium and then incubated for 48 hours. To confirm living cells after treatment with the compound, MTT was added to each culture medium and further incubated for 3 hours. Generated formazane crystal was dissolved using dimethyl sulfoxide (DMSO) and absorbance of the solution was measured at 560 nm. After the 48-hour incubation, a ratio of a cell count cultured on a well plate not treated with the compound to a cell count on a well plate treated with compounds synthesized in the examples was indicated as cell viability (%) according to each administered concentration. A cell viability curve was plotted using the cell viability (%), and the calculated concentration value (GIC50) of the compound, at which 50% of the growth was inhibited was, to confirm an effect on the inhibition of cancer cell proliferation.

The test system of data set [1] is 5′-AMP-activated protein kinase (AMPK). The experiment in a line: AMPK activation (AMPKα Thr172 phosphorylation immunoassay) in MCF7 cells. The following applies: MCF7 cells; for AMPK Activation (phosphorylated AMPKα Thr172): 50 μM compound, 24 hours; for fold induction at 50 µM: Homo sapiens, 24 h, 50 μM vs. 0 (cells without compound). Type of data set: cell-based, human. As to the method: MCF7 cells derived from human breast cancer cells were used, and an effect of a biguanide derivative on 5′-AMP-activated protein kinase (AMPK) activation was confirmed using an AMPKα immunoassay kit (Invitrogen, catalog No. KHO0651).
The MCF7 cells were put on a 6-well plate and incubated in a DMEM medium containing 10% fetal bovine serum in an incubator to which 5% CO2 was supplied to have a cell count of approximately 5×10^5. 50 μM of derivatives synthesized in the examples were treated to the each culture medium, and the cells were incubated for 24 hours. Subsequently, the cells were lysed by a method presented in the operation manual of the AMPKα immunoassay kit, and 20 μg of cell lysates were yielded through protein assay. A degree of phosphorylation of an AMPKα threonine 172nd residue (Thr172) from the cell lysates were confirmed according to a method presented in the operation manual of the AMPKα immunoassay kit to thereby obtain results.
In addition, an experiment was performed in the same manner as described in Experimental Example 2 using metformin as a control group, and the results of an effect on AMPK activation were compared to the effect on AMPK activation when 1 mM metformin was treated.

The values below come from patent publication US10376480B2, “Biguanide derivative, a preparation method thereof, and a pharmaceutical composition containing the biguanide derivative as an active ingredient” (Immunomet Therapeutics Inc., priority 2010, dated 2019).

SMILES strings stand for the structures. Bounds are passed on as bounds.

Usually melting point stands for the temperature, or range, at which the solid turns liquid. The term IC50 denotes the point on the concentration scale where inhibition reaches its midpoint. Low readings indicate greater potency in that assay, high ones weaker potency in that assay. In general, fold induction refers to the signal under treatment as a multiple of the control signal. Turning to `Cl.N=C(NCCc1ccccc1)NC(=N)NCC1CC1` [Example 14, N1-(phenethyl)-N5-cyclopropylmethyl Biguanide Hydrochloride], the melting point fell in the range of 143 to 146 °C. In the data set on HCT116 cells, this compound returned an IC50 of 47 µM. Also, in data set [1], the “AMPK Activation (phosphorylated AMPKα Thr172)” value (“AMPK Activation” for short) is given as 31.2 and the fold induction at 50 µM amounted to 5.9.

The compound `Cl.N=C(NCCc1ccccc1)NC(=N)NC1CCCCCC1` [Example 15, N1-(phenethyl)-N5-cycloheptyl Biguanide Hydrochloride] came in with a melting point of 135 to 137 °C. 17.2 µM corresponded to half-maximal inhibition in the data set with HCT116 cells (IC50). In data set [1], the “AMPK Activation” value was 7.0 and the fold induction at 50 µM is 1.5.

The compound `Cl.N=C(NCCc1ccccc1)NC(=N)NCCc1ccccc1` [Example 16, N1,N5-bis(phenethyl) Biguanide Hydrochloride] registered a melting point of 204 to 205 °C. The same compound came in with an IC50 in the data set on HCT116 cells of over 100 µM. In addition, in data set [1], the “AMPK Activation” value is recorded as 4.7 and the fold induction at 50 µM stood at 0.7.

`CNC(=N)NC(=N)N(C)C.Cl` [Example 17, N1,N1,N5-trimethyl Biguanide Hydrochloride] yielded a melting point of 175 to 177 °C. The same compound registered an IC50 with HCT116 cells of over 200 µM. Further, in data set [1], the “AMPK Activation” value is 5.5 and the fold induction at 50 µM amounted to 1.1.

On to `CCCCNC(=N)NC(=N)N(C)C.Cl` [Example 18, N1,N1-dimethyl-N5-butyl Biguanide Hydrochloride], for which the melting point was in the range of 131 to 133 °C. This compound also showed an IC50 with HCT116 cells of over 200 µM. In addition, in data set [1], the “AMPK Activation” value came out at 4.6 and the fold induction at 50 µM is 0.9.

The compound `CCC(C)NC(=N)NC(=N)N(C)C.Cl` (stereo not drawn) [Example 19, N1,N1-dimethyl-N5-(butane-2-yl) Biguanide Hydrochloride] displayed a melting point of 110 to 112 °C. Moreover, the IC50 in the data set on HCT116 cells is over 200 µM. In data set [1], the “AMPK Activation” value is 3.6 and the fold induction at 50 µM worked out at 0.7.

The compound `CN(C)C(=N)NC(=N)NC(C)(C)C.Cl` [Example 20, N1,N1-dimethyl-N5-t-butyl Biguanide Hydrochloride] yielded a melting point of 186 to 187 °C. The same compound displayed an IC50 in the data set on HCT116 cells of over 200 µM. Moreover, in data set [1], the “AMPK Activation” value is 4.6 and the fold induction at 50 µM came out at 0.9.

In turn, `CCCCCNC(=N)NC(=N)N(C)C.Cl` [Example 21, N1,N1-dimethyl-N5-pentyl Biguanide Hydrochloride] returned a melting point of 131 to 133 °C. Besides, in the data set with HCT116 cells, the IC50 was over 200 µM. In addition, in data set [1], the “AMPK Activation” value stood at 5.6 and the fold induction at 50 µM stood at 1.1.

Compound `COC(=O)CCNC(=N)NC(=N)N(C)C.Cl` [Example 22, N1,N1-dimethyl-N5-(methoxycarbonylethyl)biguanide Hydrochloride] came in with a melting point of 100 to 102 °C. In the data set on HCT116 cells, this compound gave a half-inhibitory concentration (IC50) of over 200 µM. Also, in data set [1], the “AMPK Activation” value was 3.2 and the fold induction at 50 µM worked out at 0.6.

The compound `CN(C)C(=N)NC(=N)NC1CCCCCC1.Cl` [Example 23, N1,N1-dimethyl-N5-cycloheptyl Biguanide Hydrochloride] yielded a melting point of 132 to 133 °C. Also, the IC50 in the data set on HCT116 cells was over 200 µM. Also, in data set [1], the “AMPK Activation” value is 5.4 and the fold induction at 50 µM is 1.

Consider `CN(C)C(=N)NC(=N)NCC1CC1.Cl` [Example 24, N1,N1-dimethyl-N5-cyclopropylmethyl Biguanide Hydrochloride], for which the melting point is 117 to 118 °C. This compound came in with an IC50 with HCT116 cells of over 200 µM. Moreover, in data set [1], the “AMPK Activation” value is recorded as 5.1 and the fold induction at 50 µM was 1.

Regarding `CN(C)C(=N)NC(=N)Nc1ccc(Br)cc1.Cl` [Example 25, N1,N1-dimethyl-N5-(4-bromo)phenyl Biguanide Hydrochloride], the melting point was in the range of 272 to 273 °C. The compound also registered an IC50 with HCT116 cells of over 100 µM. Also, in data set [1], the “AMPK Activation” value is given as 23.1 and the fold induction at 50 µM was determined as 4.4.

`CN(C)C(=N)NC(=N)NCc1ccco1.Cl` [Example 26, N1,N1-dimethyl-N5-(furan-2-yl)methyl Biguanide Hydrochloride] came in with a melting point of 176 to 177 °C. Moreover, the IC50 in the data set on HCT116 cells is over 200 µM. Moreover, in data set [1], the “AMPK Activation” value was 8.9 and the fold induction at 50 µM is 1.7.

As to `CN(C)C(=N)NC(=N)NCc1cccnc1.Cl` [Example 27, N1,N1-dimethyl-N5-(pyridine-3-yl)methyl Biguanide Hydrochloride], the melting point lay within 112 to 114 °C. This compound yielded an IC50 with HCT116 cells of over 200 µM. Moreover, in data set [1], the “AMPK Activation” value is on record as 4.6 and the fold induction at 50 µM was found to be 0.9.

As for `CN(C)C(=N)NC(=N)NCc1ccccc1.Cl` [Example 28, N1,N1-dimethyl-N5-benzyl Biguanide Hydrochloride], the melting point is 151 to 152 °C. Also, the 50% inhibitory concentration (IC50) in the data set on HCT116 cells was over 200 µM. In data set [1], the “AMPK Activation” value was found to be 5.9 and the fold induction at 50 µM is 1.2.

Compound `CN(C)C(=N)NC(=N)NCCc1ccccc1.Cl` [Example 29, N1,N1-dimethyl-N5-(phenethyl) Biguanide Hydrochloride] displayed a melting point of 155 to 157 °C. The same compound had an IC50 with HCT116 cells of over 200 µM. Moreover, in data set [1], the “AMPK Activation” value turned out to be 14.7 and the fold induction at 50 µM was 2.8.

With `CCN(CC)C(=N)NC(=N)Nc1cccc(Cl)c1.Cl` [Example 30, N1,N1-diethyl-N5-(3-chloro)phenyl Biguanide Hydrochloride], the melting point was in the range of 219 to 220 °C. In addition, 28.3 µM corresponded to half-maximal inhibition with HCT116 cells (IC50). Further, in data set [1], the “AMPK Activation” value is listed as 19.3 and the fold induction at 50 µM turned out to be 7.7.

For `CCCN(CC)C(=N)NC(=N)Nc1ccc(Cl)cc1.Cl` [Example 32, N1,N1-(ethyl)(propyl)-N5-(4-chloro)phenyl Biguanide Hydrochloride], the melting point is 110 to 112 °C. Moreover, the IC50 in the data set on HCT116 cells is over 200 µM. For the same compound, in data set [1], the “AMPK Activation” value came out at 5.2 and the fold induction at 50 µM worked out at 1.

`CCCN(CCC)C(=N)NC(=N)Nc1cccc2cnccc12.Cl` [Example 33, N1,N1-dipropyl-N5-(isoquinoline-5-yl) Biguanide Hydrochloride] gave a melting point of 191 to 192 °C. In the data set on HCT116 cells, this compound came in with an IC50 of over 100 µM. In data set [1], the “AMPK Activation” value came out at 11.3 and the fold induction at 50 µM amounted to 1.7.

Regarding `CCN(CC)C(=N)NC(=N)N(CC)CC.Cl` [Example 35, N1,N1,N5,N5-tetraethyl Biguanide Hydrochloride], the melting point fell in the range of 140 to 141 °C. In the data set on HCT116 cells, the IC50 was over 200 µM. Besides, in data set [1], the “AMPK Activation” value stood at 3.8 and the fold induction at 50 µM amounted to 0.7.

`CCN(CC)C(=N)NC(=N)N(C)C1CCCCC1.Cl` [Example 36, N1,N1-diethyl-N5,N5-(cyclohexyl)(methyl) Biguanide Hydrochloride]: the melting point fell in the range of 115 to 117 °C. In the data set with HCT116 cells, this compound returned an IC50 of over 200 µM. In addition, in data set [1], the “AMPK Activation” value is 4.5 and the fold induction at 50 µM worked out at 0.8.
